Series [1] is described as follows: Absorption spectrum and colour of the n-decane solution of the dye. As to conditions: for Gram extinction coefficient: decane, at the absorption maximum wavelength; for Color of solution / Absorption maximum wavelength: n-decane solution; for Absorption maximum wavelength: wavelength range 350-800 nm. It is filed as physicochemical. As to the method:
(§1) The dye was added to n-decane, and this mixture was subjected to an ultrasonic treatment at 30° C. and ordinary pressure. When the dye completely dissolved, an additional amount of the dye was added so that the dye partly remained undissolved. The mixture thus treated was allowed to stand at room temperature (25° C.) for 12 hours and then subjected to centrifugal filtration with a 0.1-μm filter to obtain a saturated solution of the dye. This solution was diluted to an appropriate concentration and examined for absorption spectrum.
(§2) From values of absorption maximum wavelength in the wavelength range of 350-800 nm, gram extinction coefficient, and molar extinction coefficient which had been determined beforehand at an appropriate concentration and from the dilution ratio and the absorption spectrum of the diluted solution, the solubility (% by weight) and the product of the molar extinction coefficient at the absorption maximum wavelength and the molar concentration of the saturated solution were calculated.

Series [2] is described as follows: Solubility of the dye in n-decane (saturated solution, 25° C., ordinary pressure). It is filed as physicochemical. Conditions: for Solubility compared with the comparative compound: from Table 1; for [Molar extinction coefficient at absorption maximum wavelength] × [molar concentration of saturated solution]: saturated solution at 25° C.; for Solubility (decane): saturated solution, 25° C., ordinary pressure, 0.1-μm filter. How it is done:
as §1, §2

Here are results for four compounds from patent US8143382B2, “Pyrazole disazo dye and ink containing the dye” (Mitsubishi Chemical Corporation, priority 2007, dated 2012).

For `CCCCc1nn(C(C)(C)C)c(O)c1N=Nc1ccc(N=Nc2ccccc2)cc1` [1-1], in series [1], the Gram extinction coefficient worked out at 62000 cm^2g^−1, the Color of solution result is “yellow” and the Absorption maximum wavelength is 417 nm. Also, in series [2], the “Solubility compared with the comparative compound” value is “higher solubility than the comparative compound”, the “[Molar extinction coefficient at absorption maximum wavelength] × [molar concentration of saturated solution]” value is 1900 cm⁻¹ and the “Solubility (decane)” value is recorded as 4.2 wt %.

For the compound `CCCCc1ccc(N=Nc2ccc(N=Nc3c(CCCC)nn(C(C)(C)C)c3O)cc2)cc1` [1-2], in series [1], the Gram extinction coefficient is given as 61000 cm^2g^−1, the Color of solution result was “yellow” and the Absorption maximum wavelength was found to be 421 nm. Besides, in series [2], the “Solubility compared with the comparative compound” value is “higher solubility than the comparative compound”, the “[Molar extinction coefficient at absorption maximum wavelength] × [molar concentration of saturated solution]” value came out at 13000 cm⁻¹ and the “Solubility (decane)” value turned out to be 30 wt %.

As to `CCc1nn(C(C)(C)C)c(O)c1N=Nc1ccc(N=Nc2ccccc2)cc1` [1-3], in series [1], the Gram extinction coefficient was determined as 69000 cm^2g^−1, the Color of solution result was “yellow” and the Absorption maximum wavelength was 415 nm. In addition, in series [2], the “Solubility compared with the comparative compound” value is “higher solubility than the comparative compound”, the “[Molar extinction coefficient at absorption maximum wavelength] × [molar concentration of saturated solution]” value stood at 1400 cm⁻¹ and the “Solubility (decane)” value is reported as 3.1 wt %.

With `Cc1nn(-c2ccccc2)c(O)c1N=Nc1ccc(N=Nc2ccccc2)cc1` [compound 1, reference compound], in series [1], the Gram extinction coefficient was found to be 97000 cm^2g^−1, the Color of solution result is “almost no” and the Absorption maximum wavelength is recorded as 416 nm. In series [2], the “[Molar extinction coefficient at absorption maximum wavelength] × [molar concentration of saturated solution]” value is 10 cm⁻¹ and the “Solubility (decane)” value is given as 0.014 wt %.
